pEC50: −log10 of the molar value.
What follows are compounds tested against human APJ receptor (Homo sapiens (Human), UniProt P35414) (assay: biochemical). Conditions: read-out: Activity hAPJ SPA EC50 IP.
Assay type: biochemical
Outline: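 Membranes from CHO cells stably expressing cloned human APJ were incubated with WGA SPA beads in 20 mM HEPES pH 7.5, 5 mM MgCl2, 0.1% BSA, 200 mM NaCl and 3 μM GDP. Reaction started with 0.2 nM [35S]GTPγS ± ligands, 90 min at RT. EC50 obtained by non-linear regression as mean of independent experiments.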

Sequence of human APJ receptor (P35414 whole entry): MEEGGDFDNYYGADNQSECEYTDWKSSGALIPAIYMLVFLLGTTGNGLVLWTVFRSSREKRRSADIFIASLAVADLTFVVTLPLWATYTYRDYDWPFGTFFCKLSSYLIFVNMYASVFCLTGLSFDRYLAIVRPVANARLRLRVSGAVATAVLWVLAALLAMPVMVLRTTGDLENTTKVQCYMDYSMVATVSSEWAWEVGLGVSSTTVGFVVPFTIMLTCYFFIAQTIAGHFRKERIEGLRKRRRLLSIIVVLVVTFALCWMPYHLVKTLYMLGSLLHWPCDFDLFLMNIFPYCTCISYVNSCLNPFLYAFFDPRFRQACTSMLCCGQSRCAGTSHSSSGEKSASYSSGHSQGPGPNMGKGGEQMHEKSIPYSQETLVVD

Structure (SMILES)	pEC50
COc1cccc(-c2nnc(NS(=O)(=O)[C@@H](C)[C@H](OC)c3ncc(C)cn3)n2-c2cccc(C(F)(F)F)c2)n1 [Example 75.0, (1R,2S)-1-methoxy-N-(5-(6-methoxy-2-pyridinyl)-4-(3-(trifluoromethyl)phenyl)-4H-1,2,4-triazol-3-yl)-1-(5-methyl-2-pyrimidinyl)-2-propanesulfonamide]	7.92
COc1cccc(-c2nnc(NS(=O)(=O)[C@@H](C)[C@H](OC)c3ncc(C)cn3)n2-c2ccc(N(C)C)cc2)n1 [Example 77.0, (1R,2S)-N-(4-(4-(dimethylamino)phenyl)-5-(6-methoxy-2-pyridinyl)-4H-1,2,4-triazol-3-yl)-1-methoxy-1-(5-methyl-2-pyrimidinyl)-2-propanesulfonamide]	8.15
COc1cccc(-c2nnc(NS(=O)(=O)[C@@H](C)[C@H](C)c3ncc(F)cn3)n2-c2ccccc2)n1 [Example 78.0, (2S,3R)-3-(5-fluoro-2-pyrimidinyl)-N-(5-(6-methoxy-2-pyridinyl)-4-phenyl-4H-1,2,4-triazol-3-yl)-2-butanesulfonamide]	8.03
CCO[C@H](c1ncc(F)cn1)[C@H](C)S(=O)(=O)Nc1nnc(-c2cncc(C)c2)n1-c1c(OC)cccc1OC [Example 79.0, (1R,2S)-N-(4-(2,6-dimethoxyphenyl)-5-(5-methyl-3-pyridinyl)-4H-1,2,4-triazol-3-yl)-1-ethoxy-1-(5-fluoro-2-pyrimidinyl)-2-propanesulfonamide]	9.39
COc1cccc(OC)c1-n1c(NS(=O)(=O)[C@@H](C)[C@H](O)c2ncc(F)cn2)nnc1-c1cccnc1 [Example 82.0, (1R,2S)-N-(4-(2,6-dimethoxyphenyl)-5-(3-pyridinyl)-4H-1,2,4-triazol-3-yl)-1-(5-fluoro-2-pyrimidinyl)-1-hydroxy-2-propanesulfonamide]	8.55
COc1cc(-c2nnc(NS(=O)(=O)[C@@H](C)[C@H](C)c3ncc(C)cn3)n2-c2c(OC)cccc2OC)ccn1 [Example 84.0, (2S,3R)-N-(4-(2,6-dimethoxyphenyl)-5-(2-methoxypyridin-4-yl)-4H-1,2,4-triazol-3-yl)-3-(5-methylpyrimidin-2-yl)butane-2-sulfonamide]	8.28
COc1cccc(OC)c1-n1c(NS(=O)(=O)[C@@H](C)[C@H](C)c2ncc(C)cn2)nnc1-c1ccnc(C)c1 [Example 85.0, (2S,3R)-N-(4-(2,6-dimethoxyphenyl)-5-(2-methylpyridin-4-yl)-4H-1,2,4-triazol-3-yl)-3-(5-methylpyrimidin-2-yl)butane-2-sulfonamide]	8.28
COc1cncc(-c2nnc(NS(=O)(=O)[C@@H](C)[C@H](C)c3ncc(C)cn3)n2-c2c(OC)cccc2OC)c1 [Example 86.0, (2S,3R)-N-(4-(2,6-dimethoxyphenyl)-5-(5-methoxypyridin-3-yl)-4H-1,2,4-triazol-3-yl)-3-(5-methylpyrimidin-2-yl)butane-2-sulfonamide]	8.89
COc1cccc(OC)c1-n1c(NS(=O)(=O)[C@@H](C)[C@H](C)c2ncc(C)cn2)nnc1-c1cccc(C)n1 [Example 87.0, (2S,3R)-N-(4-(2,6-dimethoxyphenyl)-5-(6-methylpyridin-2-yl)-4H-1,2,4-triazol-3-yl)-3-(5-methylpyrimidin-2-yl)butane-2-sulfonamide]	9.40
COc1cccc(OC)c1-n1c(NS(=O)(=O)[C@@H](C)[C@H](OC)c2ncc(Cl)cn2)nnc1-c1cccc(C)n1 [Example 88.0, (1R,2S)-1-(5-chloropyrimidin-2-yl)-N-(4-(2,6-dimethoxyphenyl)-5-(6-methylpyridin-2-yl)-4H-1,2,4-triazol-3-yl)-1-methoxypropane-2-sulfonamide]	9.43
COc1cccc(OC)c1-n1c(NS(=O)(=O)[C@H](C)[C@@H](OC)c2ncc(Cl)cn2)nnc1-c1cccc(C)n1 [Example 89.0, (1S,2R)-1-(5-chloropyrimidin-2-yl)-N-(4-(2,6-dimethoxyphenyl)-5-(6-methylpyridin-2-yl)-4H-1,2,4-triazol-3-yl)-1-methoxypropane-2-sulfonamide]	7.96
COc1ncnc(OC)c1-n1c(NS(=O)(=O)[C@@H](C)[C@H](OC)c2ncc(C)cn2)nnc1-c1cccc(C)n1 [Example 90.0, (1R,2S)-N-(4-(4,6-dimethoxypyrimidin-5-yl)-5-(6-methylpyridin-2-yl)-4H-1,2,4-triazol-3-yl)-1-methoxy-1-(5-methylpyrimidin-2-yl)propane-2-sulfonamide]	8.62
COc1cccc(-c2nnc(NS(=O)(=O)C(C)C)n2-c2c(OC)cccc2OC)n1 [Example 100.0, N-(4-(2,6-dimethoxyphenyl)-5-(6-methoxypyridin-2-yl)-4H-1,2,4-triazol-3-yl)propane-2-sulfonamide]	6.96
COc1cc(-c2nnc(NS(=O)(=O)[C@@H](C)[C@H](OC)c3ncc(C)cn3)n2-c2c(OC)cccc2OC)ccn1 [Example 101.0, (1R,2S)-N-(4-(2,6-dimethoxyphenyl)-5-(2-methoxypyridin-4-yl)-4H-1,2,4-triazol-3-yl)-1-methoxy-1-(5-methylpyrimidin-2-yl)propane-2-sulfonamide]	8.15
COc1cccc(OC)c1-n1c(NS(=O)(=O)[C@@H](C)[C@H](OC)c2ncc(C)cn2)nnc1-c1ccncc1 [Example 102.0, (1R,2S)-N-(4-(2,6-dimethoxyphenyl)-5-(pyridin-4-yl)-4H-1,2,4-triazol-3-yl)-1-methoxy-1-(5-methylpyrimidin-2-yl)propane-2-sulfonamide]	7.74
COc1cccc(OC)c1-n1c(NS(=O)(=O)[C@@H](C)[C@H](OC)c2ncc(C)cn2)nnc1-c1cccc(C)n1 [Example 103.0, (1R,2S)-N-(4-(2,6-dimethoxyphenyl)-5-(6-methylpyridin-2-yl)-4H-1,2,4-triazol-3-yl)-1-methoxy-1-(5-methylpyrimidin-2-yl)propane-2-sulfonamide]	9.29
COc1cccc(OC)c1-n1c(NS(=O)(=O)[C@@H](C)[C@H](OC)c2ncc(C)cn2)nnc1-c1ccnc(C)c1 [Example 104.0, (1R,2S)-N-(4-(2,6-dimethoxyphenyl)-5-(2-methylpyridin-4-yl)-4H-1,2,4-triazol-3-yl)-1-methoxy-1-(5-methylpyrimidin-2-yl)propane-2-sulfonamide]	8.62
CCOc1cccc(-c2nnc(NS(=O)(=O)[C@@H](C)[C@H](C)c3ncc(F)cn3)n2-c2c(OC)cccc2OC)n1 [Example 161.0, (2S,3R)-N-(4-(2,6-dimethoxyphenyl)-5-(6-ethoxy-2-pyridinyl)-4H-1,2,4-triazol-3-yl)-3-(5-fluoro-2-pyrimidinyl)-2-butanesulfonamide]	10.21
COc1cccc(OC)c1-n1c(NS(=O)(=O)[C@@H](C)[C@H](C)c2ncc(F)cn2)nnc1-c1cccc(=O)[nH]1 [Example 168.0, (2S,3R)-N-(4-(2,6-dimethoxyphenyl)-5-(6-oxo-1,6-dihydro-2-pyridinyl)-4H-1,2,4-triazol-3-yl)-3-(5-fluoro-2-pyrimidinyl)-2-butanesulfonamide]	6.96
CCOc1cccc(-c2nnc(NS(=O)(=O)[C@@H](C)[C@H](OC)c3ncc(C)cn3)n2-c2c(OC)cccc2OC)n1 [Example 172.0, (1R,2S)-N-(4-(2,6-dimethoxyphenyl)-5-(6-ethoxypyridin-2-yl)-4H-1,2,4-triazol-3-yl)-1-methoxy-1-(5-methylpyrimidin-2-yl)propane-2-sulfonamide]	10.19
CCc1cccc(-c2nnc(NS(=O)(=O)[C@@H](C)[C@H](OC)c3ncc(C)cn3)n2-c2c(OC)cccc2OC)n1 [Example 174.0, (1R,2S)-N-(4-(2,6-dimethoxyphenyl)-5-(6-ethylpyridin-2-yl)-4H-1,2,4-triazol-3-yl)-1-methoxy-1-(5-methylpyrimidin-2-yl)propane-2-sulfonamide]	9.70
CCc1cccc(-c2nnc(NS(=O)(=O)[C@@H](C)[C@H](O)c3ncc(C)cn3)n2-c2c(OC)cccc2OC)n1 [Example 175.0, (1R,2S)-N-(4-(2,6-dimethoxyphenyl)-5-(6-ethylpyridin-2-yl)-4H-1,2,4-triazol-3-yl)-1-hydroxy-1-(5-methylpyrimidin-2-yl)propane-2-sulfonamide]	9.41
CCc1cccc(-c2nnc(NS(=O)(=O)[C@@H](C)[C@H](C)c3ncc(C)cn3)n2-c2c(OC)cccc2OC)n1 [Example 176.0, (2S,3R)-N-(4-(2,6-dimethoxyphenyl)-5-(6-ethylpyridin-2-yl)-4H-1,2,4-triazol-3-yl)-3-(5-methylpyrimidin-2-yl)butane-2-sulfonamide]	9.82
COc1cc(C)cc(-c2nnc(NS(=O)(=O)[C@@H](C)[C@H](C)c3ncc(F)cn3)n2-c2c(OC)cccc2OC)n1 [Example 177.0, (2S,3R)-N-(4-(2,6-dimethoxyphenyl)-5-(6-methoxy-4-methylpyridin-2-yl)-4H-1,2,4-triazol-3-yl)-3-(5-fluoropyrimidin-2-yl)butane-2-sulfonamide]	9.92
COc1cc(C)cc(-c2nnc(NS(=O)(=O)[C@@H](C)[C@H](C)c3ncc(C)cn3)n2-c2c(OC)cccc2OC)n1 [Example 178.0, (2S,3R)-N-(4-(2,6-dimethoxyphenyl)-5-(6-methoxy-4-methylpyridin-2-yl)-4H-1,2,4-triazol-3-yl)-3-(5-methylpyrimidin-2-yl)butane-2-sulfonamide]	9.92
COc1cc(C)cc(-c2nnc(NS(=O)(=O)[C@@H](C)[C@H](OC)c3ncc(C)cn3)n2-c2c(OC)cccc2OC)n1 [Example 179.0, (1R,2S)-N-(4-(2,6-dimethoxyphenyl)-5-(6-methoxy-4-methylpyridin-2-yl)-4H-1,2,4-triazol-3-yl)-1-methoxy-1-(5-methylpyrimidin-2-yl)propane-2-sulfonamide]	8.32
CCOc1cccc(-c2nnc(NS(=O)(=O)[C@@H](C)[C@H](C)c3ncc(C)cn3)n2-c2c(OC)cccc2OC)n1 [Example 180.0, (2S,3R)-N-(4-(2,6-dimethoxyphenyl)-5-(6-ethoxypyridin-2-yl)-4H-1,2,4-triazol-3-yl)-3-(5-methylpyrimidin-2-yl)butane-2-sulfonamide]	10.17
